Data from patent US6841533B1, “Conformationally constrained backbone cyclized interleukin-6 antagonists” (Peptor Limited, priority 1995, dated 2005).
Numbered stars: 1 amine (or outer) side, 2 acyl side, 3 side chain; on linkers, the order of the positions; unused ones are H or OH. Bridge positions count the residues as written; N and C are the ends. Square brackets hold non-standard residues; d marks the D form. Peptide text beside a SMILES is read from it. Ala(Nα-(CH2)3CO) = C[C@@H](C(=O)[*:2])N(CCCC(=O)[*:3])[*:1]; Ala(Nα-(CH2)3NH) = C[C@@H](C(=O)[*:2])N(CCCN[*:3])[*:1]

Assays:
[1] = system: IL-6 mediated acute-phase response; assay: IL-6 mediated acute-phase response (turpentine model); format: in vivo, mice
Excerpt: The objective was to establish a simple first-line in-vivo model, for testing the activity of IL-6 inhibitors. The turpentine model was chosen based on the principal role that IL-6 plays in this inflammatory response.
Systemic and localized inflammation elicit a general reaction in the organism, known as the acute phase response, which includes fever, loss of body weight, hypoglycemia, and changes in the serum levels of several plasma proteins produced by the liver. IL-6 is an important mediator of the acute-phase reaction (see Heinrich et.al., Biochemistry J. 1 265:621, 1990 for a comprehensive review), together with IL-1 and TNF-α. It has been shown previously that sterile tissue damage caused by injection of turpentine induces an acute-phase reaction, and that IL-6 is an essential mediator of this response (Rokita et.al., Cytokine 5:454, 1993).
IL-6 knock-out (-/-) and matched wild-type (C57/Black; CB) mice were used. Sterile tissue damage was induced by subcutaneous injection of turpentine, 0.1 ml, into both hind limbs. IL-6 was determined in the serum by ELISA (QuantikineM, R&D). For liver acute-phase proteins, Fibrinogen was determined in citrated plasma, by the calcium method.
PTR 5045 (SEQ ID NO:75) was tested in this model in compare to the non-relevant control peptide PTR 4041 (SEQ ID NO:33) (Lys-GlyC2-Leu-Ile-Gln-Leu-Phe-GlyN3-Lys-Lys-NH2).

[2] = Metabolic stability in vitro against renal homogenate; format: in vitro ADME
Experimental: The special feature of the novel backbone cyclic peptide analogs is their metabolic stability as tested in vitro against degradation of the most aggressive enzyme mixture in the body (e.g., renal homogenate). PTR 5045 is stable under these conditions for up to 24 hours.

[3] = system: B16.F10.9 melanoma cells; settings: 200 ng/ml IL-6 and 125 ng/ml sIL-6R, three days, FIG. 2
Excerpt: The F10.9 sub-line of B16 (murine melanoma) expresses gp130 but not IL-6R. Addition of human IL-6 and human IL-6R, or a chimera of IL-6/IL-6R results in differentiation which is associated with growth arrest of the cells. Inhibition of IL-6 results in continued growth. Since the end point of this assay is cell growth rather than cell death, this assay system was used primarily in order to differentiate between suspected toxic effects observed on B9 or T1165 cells, and true inhibition of IL-6 activity.
Evaluation of the results in this assay is possible using two methods. One method uses vital dyes for monitoring cell growth. The second method comprises visual observation of the cell morphology and establishing a cut off point based on the following observations:
Cells which are not treated with IL-6 create a monolayer that covers almost all the surface area. Treatment with IL-6 causes growth arrest and a morphological change: the cells become very narrow and elongated as compared to the more spread out shape of the non-treated cells.
Peptides were added to B16.F10.9 melanoma cells in the presence of 200 ng/ml IL-6 and 125 ng/ml sIL-6R. Incubation for three days.

[4] = mice, turpentine, 1 or 10 mg/kg of peptide

time stable against degradation by renal homogenate [2]: up to 24 hours
Structure (SMILES): CC(C)C[C@@H]1NC(=O)[C@H](C)N(C(=O)[C@H](Cc2ccccc2)NC(=O)[C@@H](CCCNC(=N)N)NC(=O)[C@H](CCCCN)NC(=O)[C@H](CCCNC(=N)N)NC(=O)[C@@H](N)Cc2c[nH]c3ccccc23)CCCC(=O)NCCCN([C@@H](C)C(N)=O)C(=O)[C@@H](Cc2ccc(O)cc2)NC(=O)[C@H](CCCNC(=N)N)NC1=O [PTR 5045, Trp-Arg-Lys-(D)Arg-Phe-AlaC3-Leu-Arg-(D)Tyr-AlaN3-NH2] (H-WRK[dR]F[Ala(Nα-(CH2)3CO)]LR[dY][Ala(Nα-(CH2)3NH)]-NH2; lactam 6-10)
Mean weight loss % [1, 4]: −3.93% | Mean weight loss grams [1, 4]: −1.35 grams | reduction of the effect mediated by IL-6 on body weight during acute inflammation ([1]; versus control peptide PTR 4041): reduces by about half | concentration that fully blocks IL-6 activity [3]: about 250 nM
